From ChEMBL document CHEMBL5113400, “Design, synthesis, and biological evaluation of trizole-based heteroaromatic derivatives as Bcr-Abl kinase inhibitors” (Eur J Med Chem, 2022)
Values belong to the compound of their own block, whether it stands above or below them. Calls of active or inactive are those of the source. The rule behind the calls is not given here.

Tests used:
K562 [1] = assay: Induction of apoptosis in human K562 cells assessed as late apoptotic cells at 1 uM incubated for 48 hrs by Annexin V-FITC/PI staining based flow cytometry analysis (Rvb= 2.89%); type: functional
[2] = target: T1, Signal transducer and activator of transcription 5A (Homo sapiens) (UniProt P42229); assay: Inhibition of STAT5 phosphorylation at Tyr694 residue in human K562 cells expressing wild type Bcr-Abl at 0.1 to 15 uM measured after 48 hrs by Western blot analysis; type: cell-based; settings: dose 0.1-15 µM, DDE = dose-dependent effect
T1 sequence (whole entry): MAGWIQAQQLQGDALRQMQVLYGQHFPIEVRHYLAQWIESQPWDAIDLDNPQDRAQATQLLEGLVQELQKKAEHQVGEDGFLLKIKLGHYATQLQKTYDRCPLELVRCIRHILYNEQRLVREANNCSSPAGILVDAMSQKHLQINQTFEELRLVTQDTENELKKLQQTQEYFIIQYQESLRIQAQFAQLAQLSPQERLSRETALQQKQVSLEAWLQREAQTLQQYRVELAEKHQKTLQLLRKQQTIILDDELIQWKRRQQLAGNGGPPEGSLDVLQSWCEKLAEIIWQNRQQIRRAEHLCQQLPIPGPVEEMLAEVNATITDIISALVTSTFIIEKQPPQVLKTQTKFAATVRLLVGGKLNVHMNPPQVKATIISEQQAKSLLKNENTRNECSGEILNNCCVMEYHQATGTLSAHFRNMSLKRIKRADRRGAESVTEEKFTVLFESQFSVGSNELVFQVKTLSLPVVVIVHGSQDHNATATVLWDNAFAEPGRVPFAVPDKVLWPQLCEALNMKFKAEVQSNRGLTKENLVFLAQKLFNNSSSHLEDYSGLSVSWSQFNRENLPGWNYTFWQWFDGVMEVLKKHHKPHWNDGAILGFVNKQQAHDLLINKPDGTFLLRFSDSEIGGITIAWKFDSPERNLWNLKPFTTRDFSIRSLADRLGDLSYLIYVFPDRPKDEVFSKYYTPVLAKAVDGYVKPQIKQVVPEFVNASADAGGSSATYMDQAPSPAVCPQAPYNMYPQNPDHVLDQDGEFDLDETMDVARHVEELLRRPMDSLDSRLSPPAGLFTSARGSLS

BaF3 [3] = assay: Antiproliferative activity against mouse BaF3 cells expressing Bcr-Abl T315I mutant assessed as inhibition of cell growth at 30 uM incubated for 72 hrs by CellTiter-Glo luminescent assay; type: functional
[4] = target: T2, Bcr/Abl fusion protein (Homo sapiens) (UniProt P00519+P11274); assay: Inhibition of Bcr-Abl phosphorylation at Tyr245 residue in human K562 cells expressing wild type Bcr-Abl at 5 to 15 uM measured after 48 hrs by Western blot analysis; type: cell-based; settings: dose 5-15 µM
K562 [5] = assay: Induction of apoptosis in human K562 cells assessed as viable cells at 1 uM incubated for 48 hrs by Annexin V-FITC/PI staining based flow cytometry analysis (Rvb= 80.56%); type: functional; settings: read-out: Activity
K-562R = assay: Antiproliferative activity against human K-562R cells expressing Bcr-Abl T315I mutant assessed as inhibition of cell growth incubated for 48 hrs by MTT assay; type: functional, cell-based
K562/Adr = assay: Antiproliferative activity against human Adriamycin-resistant K562/Adr cells assessed as inhibition of cell growth incubated for 48 hrs by MTT assay; type: functional, cell-based
BaF3 [6] = assay: Antiproliferative activity against mouse BaF3 cells expressing wild type Bcr-Abl assessed as inhibition of cell growth incubated for 72 hrs by CellTiter-Glo luminescent assay; type: functional, cell-based; settings: BaF3, 72 h
Bcr/Abl fusion protein [7] = target: Bcr/Abl fusion protein (Homo sapiens, UniProt P00519); assay: Inhibition of wild type Bcr-Abl (unknown origin) incubated for 1 hr in presence of ATP by ADP-Glo kinase assay; type: protein assay
K562 [8] = assay: Induction of apoptosis in human K562 cells assessed as necrotic cells at 5 uM incubated for 48 hrs by Annexin V-FITC/PI staining based flow cytometry analysis (Rvb= 0.29%); type: functional
EA.hy 926 = assay: Cytotoxicity against human EA.hy 926 cells assessed as inhibition of cell growth upto 100 uM incubated for 48 hrs by MTT assay; type: toxicity, cell-based; settings: ea.hy 926, 48 h
K562 [9] = assay: Induction of apoptosis in human K562 cells assessed as early apoptotic cells at 10 uM incubated for 48 hrs by Annexin V-FITC/PI staining based flow cytometry analysis (Rvb= […]); type: functional
K562 [10] = assay: Induction of apoptosis in human K562 cells assessed as viable cells at 5 uM incubated for 48 hrs by Annexin V-FITC/PI staining based flow cytometry analysis (Rvb= 80.56%); type: functional; settings: read-out: Activity
K562 [11] = assay: Induction of apoptosis in human K562 cells assessed as early apoptotic cells at 1 uM incubated for 48 hrs by Annexin V-FITC/PI staining based flow cytometry analysis (Rvb= […]); type: functional
K562 [12] = assay: Induction of cell cycle arrest in human K562 cells assessed as reduction in G0/G1 phase at 1 to 10 uM incubated for 48 hrs by PI staining based flow cytometry; type: functional; settings: dose 1-10 µM
BaF3 [13] = assay: Antiproliferative activity against mouse BaF3 cells assessed as inhibition of cell growth incubated for 72 hrs by CellTiter-Glo luminescent assay; type: functional, cell-based; settings: BaF3, 72 h
Bcr/Abl fusion protein [14] = target: Bcr/Abl fusion protein (Homo sapiens, UniProt P00519, T315I); assay: Inhibition of Bcr-Abl T315I mutant (unknown origin) incubated for 1 hr in presence of ATP by ADP-Glo kinase assay; type: protein assay
K562 [15] = assay: Antiproliferative activity against human K562 cells assessed as inhibition of cell growth incubated for 48 hrs by MTT assay; type: functional, cell-based; settings: K562, 48 h
K562 [16] = assay: Induction of cell cycle arrest in human K562 cells assessed as accumulation at S phase at 1 to 10 uM incubated for 48 hrs by PI staining based flow cytometry; type: functional; settings: dose 1-10 µM
BaF3 [17] = assay: Antiproliferative activity against mouse BaF3 cells expressing Bcr-Abl T315I mutant assessed as inhibition of cell growth incubated for 72 hrs by CellTiter-Glo luminescent assay; type: functional, cell-based; settings: BaF3, 72 h
K562 [18] = assay: Induction of apoptosis in human K562 cells assessed as necrotic cells at 10 uM incubated for 48 hrs by Annexin V-FITC/PI staining based flow cytometry analysis (Rvb= 0.29%); type: functional
K562 [19] = assay: Induction of apoptosis in human K562 cells assessed as necrotic cells at 1 uM incubated for 48 hrs by Annexin V-FITC/PI staining based flow cytometry analysis (Rvb= 0.29%); type: functional
K562 [20] = assay: Induction of apoptosis in human K562 cells assessed as late apoptotic cells at 5 uM incubated for 48 hrs by Annexin V-FITC/PI staining based flow cytometry analysis (Rvb= 2.89%); type: functional
K562 [21] = assay: Induction of apoptosis in human K562 cells assessed as late apoptotic cells at 10 uM incubated for 48 hrs by Annexin V-FITC/PI staining based flow cytometry analysis (Rvb= 2.89%); type: functional
K562 [22] = assay: Induction of apoptosis in human K562 cells assessed as early apoptotic cells at 5 uM incubated for 48 hrs by Annexin V-FITC/PI staining based flow cytometry analysis (Rvb= […]); type: functional
HEK293 = assay: Cytotoxicity against human HEK293 cells assessed as inhibition of cell growth upto 100 uM incubated for 48 hrs by MTT assay; type: toxicity, cell-based; settings: hek293, 48 h
K562 [23] = assay: Induction of apoptosis in human K562 cells assessed as viable cells at 10 uM incubated for 48 hrs by Annexin V-FITC/PI staining based flow cytometry analysis (Rvb= 80.56%); type: functional; settings: read-out: Activity
K562 [24] = assay: Induction of apoptosis in human K562 cells assessed as viable cells at 5 uM incubated for 48 hrs by Annexin V-FITC/PI staining based flow cytometry analysis (Rvb= 83.0.5%); type: functional; settings: read-out: Activity
K562 [25] = assay: Induction of apoptosis in human K562 cells assessed as early apoptotic cells at 20 uM incubated for 48 hrs by Annexin V-FITC/PI staining based flow cytometry analysis (Rvb= 11.35%); type: functional
K562 [26] = assay: Induction of apoptosis in human K562 cells assessed as late apoptotic cells at 20 uM incubated for 48 hrs by Annexin V-FITC/PI staining based flow cytometry analysis (Rvb= 5.35%); type: functional
K562 [27] = assay: Induction of apoptosis in human K562 cells assessed as early apoptotic cells at 5 uM incubated for 48 hrs by Annexin V-FITC/PI staining based flow cytometry analysis (Rvb= 11.35%); type: functional
K562 [28] = assay: Induction of apoptosis in human K562 cells assessed as late apoptotic cells at 5 uM incubated for 48 hrs by Annexin V-FITC/PI staining based flow cytometry analysis (Rvb= 5.35%); type: functional
K562 [29] = assay: Induction of cell cycle arrest in human K562 cells assessed as accumulation at S phase at 5 to 20 uM incubated for 48 hrs by PI staining based flow cytometry (Rvb=49%); type: functional; settings: dose 5-20 µM
K562 [30] = assay: Induction of apoptosis in human K562 cells assessed as viable cells at 20 uM incubated for 48 hrs by Annexin V-FITC/PI staining based flow cytometry analysis (Rvb= 83.0.5%); type: functional; settings: read-out: Activity
K562 [31] = assay: Induction of apoptosis in human K562 cells assessed as necrotic cells at 20 uM incubated for 48 hrs by Annexin V-FITC/PI staining based flow cytometry analysis (Rvb= 0.25%); type: functional
K562 [32] = assay: Induction of apoptosis in human K562 cells assessed as necrotic cells at 5 uM incubated for 48 hrs by Annexin V-FITC/PI staining based flow cytometry analysis (Rvb= 0.25%); type: functional
K562 [33] = assay: Induction of apoptosis in human K562 cells assessed as viable cells at 10 uM incubated for 48 hrs by Annexin V-FITC/PI staining based flow cytometry analysis (Rvb= 83.0.5%); type: functional; settings: read-out: Activity
[34] = target: T2, Bcr/Abl fusion protein (Homo sapiens); assay: Inhibition of Bcr-Abl phosphorylation at Tyr245 residue in human K562 cells expressing wild type Bcr-Abl at 0.1 to 15 uM measured after 48 hrs by Western blot analysis; type: cell-based; settings: dose 0.1-15 µM, DDE = dose-dependent effect
K562 [35] = assay: Induction of apoptosis in human K562 cells assessed as early apoptotic cells at 10 uM incubated for 48 hrs by Annexin V-FITC/PI staining based flow cytometry analysis (Rvb= 11.35%); type: functional
K562 [36] = assay: Induction of apoptosis in human K562 cells assessed as late apoptotic cells at 10 uM incubated for 48 hrs by Annexin V-FITC/PI staining based flow cytometry analysis (Rvb= 5.35%); type: functional
K562 [37] = assay: Induction of apoptosis in human K562 cells assessed as necrotic cells at 10 uM incubated for 48 hrs by Annexin V-FITC/PI staining based flow cytometry analysis (Rvb= 0.25%); type: functional

inhibition [2]: Dde
inhibition [4]: Active
IC50 (K-562R): 13.3 µM
IC50 (K562/Adr): 4.72 µM
IC50 (BaF3 [6]): 6.96 µM
IC50 (Bcr/Abl fusion protein [7]): 0.00049 µM
IC50 (BaF3 [13]): > 20 µM
IC50 (Bcr/Abl fusion protein [14]): 0.111 µM
IC50 (K562 [15]): 5.06 µM
IC50 (BaF3 [17]): 4.13 µM
SMILES: CS(=O)(=O)Nc1ccc(-c2cn([C@@H]3CN[C@H](C(=O)Nc4ccc(Cl)c(C(F)(F)F)c4)C3)nn2)cn1
Activity (K562 [1]): 2.43%
inhibition at 30 µM (BaF3 [3]): 99.7%
viability at 1 µM (K562 [5]): 79.3%
Activity (K562 [8]): 0.4%
Activity (EA.hy 926): Non-Toxic
Activity (K562 [9]): 23.79%
viability at 5 µM (K562 [10]): 79.3%
Activity (K562 [11]): 18.03%
Activity (K562 [12]): Active
Activity (K562 [16]): Active
Activity (K562 [18]): 0.28%
Activity (K562 [19]): 0.19%
Activity (K562 [20]): 3.19%
Activity (K562 [21]): 4.11%
Activity (K562 [22]): 17.14%
Activity (HEK293): Non-Toxic
viability at 10 µM (K562 [23]): 71.8%

inhibition [2]: Dde
IC50 (K-562R): 40.1 µM
IC50 (K562/Adr): 9.57 µM
IC50 (BaF3 [6]): 1.42 µM
IC50 (Bcr/Abl fusion protein [7]): 0.0015 µM
IC50 (BaF3 [13]): > 20 µM
IC50 (Bcr/Abl fusion protein [14]): 0.188 µM
IC50 (K562 [15]): 5.2 µM
IC50 (BaF3 [17]): 9.47 µM
inhibition [34]: Dde
SMILES: O=C(Nc1n[nH]c2cc(-c3cn([C@@H]4CN[C@H](C(=O)Nc5ccc(Cl)c(C(F)(F)F)c5)C4)nn3)ccc12)C1CC1
viability at 5 µM (K562 [24]): 76.7%
inhibition at 30 µM (BaF3 [3]): 85.4%
Activity (EA.hy 926): Non-Toxic
Activity (K562 [25]): 33.16%
Activity (K562 [26]): 12.2%
Activity (K562 [27]): 14.34%
Activity (K562 [28]): 8.75%
Activity (K562 [29]): 54.15%
viability at 20 µM (K562 [30]): 54.4%
Activity (K562 [31]): 0.23%
Activity (K562 [32]): 0.22%
viability at 10 µM (K562 [33]): 68.6%
Activity (K562 [35]): 18.48%
Activity (HEK293): Non-Toxic
Activity (K562 [36]): 12.74%
Activity (K562 [37]): 0.19%
